# Reference: patent US8716284B2, “Adamantyl diamide derivatives and uses of same” (H. Lundbeck A/S, priority 2008, dated 2014)
# How the values were obtained:
# mGluR5 = mGluR5 (Homo sapiens, UniProt P41594); assay: Radioligand binding assay, [3H]MPEP filtration binding to membrane homogenates; conditions: 5 nM [3H]MPEP; Ki calculated from IC50 by Cheng-Prusoff
# Experimental: Binding assays were performed as described in [J. A. O'Brien et al. Mol. Pharmacol., 2003, 64, 731-740] with slight modifications. Briefly, after thawing, the membrane homogenates were resuspended in 50 mM Tris-HCl, 0.9% NaCl binding buffer at pH 7.4 to a final assay concentration of 40 μg protein/well for [^3H]methoxy-5-(2-pyridinylethynyl)pyridine ([^3H] MPEP) (American Radiolabeled Chemicals, Inc., St. Louis, Mo.) filtration binding. Incubations included 5 nM [^3H] MPEP, membranes and either buffer or varying concentrations of compound. Samples were incubated for 60 min at room temperature with shaking. Non-specific binding was defined with 10 μM MPEP. After incubation, samples were filtered over a GF/C filter (presoaked in 0.25% polyethyleneimine (PEI)) and then washed 4 times using a Tomtec® Harvester 96® Mach III cell harvester (Tomtec, Hamden, Conn.) with 0.5 mL ice-cold 50 mM Tris-HCl (pH 7.4).
# IC50 values were derived from the inhibition curve and Ki values were calculated according to the Cheng and Prusoff equation of Ki=IC50/(1+[L]/Kd) described in [Y. Cheng and W. H. Prusoff Biochem. Pharmacol. 1973, 22, 3099-3108] where [L] is the concentration of radioligand and Kd is its dissociation constant at the receptor, derived from the saturation isotherm.
# [1] = tested on: adult, male Sprague-Dawley rats; assay: Modified Geller-Seifter conflict test, anxiolytic effect; type: in vivo, rat; conditions: for Statistically significant Active dose(s): oral, Geller-Seifter assay, ANOVA with Dunnett's test or t-test; for Geller-Seifter EDmin: rat conflict test, PO for Example 58
# Experimental: (§1) Examples 1, 2 and 58 were evaluated in vivo for anxiolytic effects using (1) mouse marble burying (mMB) methods similar to those described in [K. Njung'e, K. and S. L. Handley, Pharmacology, Biochemistry and Behavior, 1991, 38, 63-67] and (2) a modified Geller-Seifter conflict test described in [N. A. Moore et al. Behavioural Pharmacology. 1994, 5, 196-202].
# More specifically for the Geller-Seifter Conflict testing, rodent operant chambers (ENV-007CT, Med Associates Inc. (Georgia, Vt.)) and sound-attenuating chambers (ENV-018MD, Med Associates Inc.) were used. Each chamber was equipped with a house light, cue lights, grid floor to deliver foot shocks via a programmable shocker, (ENV-414, Med Associates, Inc.) and food hopper. Two levers were located on either side of the food hopper, Rats were trained to only respond on the left lever. Food reinforcement was used (Dustless Precision Pellets, 45 mg, BioServ, (Frenchtown, N.J.)). MED-PCIV software (Med Associates) was used to run experimental sessions and collect data.
# Prior to beginning the Conflict procedure, animals were initially trained to lever press on fixed ratio schedules (FR 1, 2, 5, and 10). Once animals obtained 25 rewards on a FR 10 schedule for 2 consecutive days, animals began training on a three component Conflict schedule. […] These three components were repeated twice in the same order during the daily 30 minute session.
# Animals were tested using a Latin-squares design, on Wednesdays and Fridays. Animals served as their own controls and received all treatments. To maintain baseline performance, animals were also trained the remaining three weekdays.
# Testing was performed using 12 adult, male Sprague-Dawley rats, weighing 426-567 g (Charles River Laboratories (Kingston, N.Y.)). Animals were pair-housed in colony rooms maintained at controlled temperature (68-72° F.) and a 12-h light/dark cycle (lights on 06:00). Animals were given free access to water, while food was limited to 15 g of Bacon Lover's Treats (BioServ) after training/testing Monday through Thursday. Friday through Sunday, animals had free access to Lab Diet 5012 Rat Diet (PMI Nutrition International, LLC, Brentwood, Mo.) until cages were changed and food removed on Sunday.
# Testing included multiple tests where each test was performed to evaluate either a reference compound or a compound of the present invention. Reference anxiolytics included chlordiazepoxide, diazepam and buspirone, which were dissolved in saline or water and administered via SC, IP, and/or PO, Test compounds were dissolved in 20% beta-cyclodextrin, and the pH was adjusted to 7 with NaHCO3. For each test, the compound to be evaluated was tested at one or more doses (such as 10, 20, 30 and/or 50 mg/kg) via p.o. administration 60 minutes before the test using an injection volume of 2 mL/kg in comparison with a vehicle control group. Doses were measured in mg drug (salt form) per kg body weight. Data was analyzed using Repeated Measures ANOVA with post-hoc Dunnett's test.
# adult, male CD1 mice = assay: Mouse marble burying (mMB) assay, anxiolytic effect; type: in vivo; conditions: for mMB EDmin: SC given for Example 58
# Experimental: as §1
# More specifically for the mMB testing, adult, male CD1 mice (Charles River Laboratories (Kingston, N.Y.)), weighing 25 to 30 g, were used. All animals were group-housed in a standard colony room with a 12:12 light/dark cycle (lights on at 6:00 am) for at least one week prior to testing. Food and water were provided ad libitum. Animals were weighed, tail marked, and randomly assigned to treatment groups before testing.
# For each test, sixty minutes after the injection of vehicle or test compound, or 30 min after injection of the positive control, buspirone, mice were individually placed into test cages containing 1.5 in of Aspen bedding (PWI brand) and two rows of 10 marbles (20 marbles per test cage total). Filter tops were used to cover each test cage. Thirty minutes later, mice were removed from test cages and returned to their home cages. The number of fully visible marbles (less than ⅔ covered with bedding) were counted and subtracted from 20 to arrive at the number of marbles buried. Twelve mice were tested per group.
# Testing included multiple tests with each test performed to evaluate buspirone hydrochloride (BUS; Sigma Aldrich) (positive control) and/or a compound of the present invention. Each compound was dissolved immediately prior to testing in 20% beta-cyclodextrin (compound of the present invention) or distilled water (BUS) and administered at one or more doses (such as 3, 10, and/or 30 mg/kg) via subcutaneous (SC) or intraperitoneal (IP) injection at the indicated pretreatment times (i.e., 30, 60, or 120 min pretreatment). Doses were measured in mg drug (salt form) per kg body weight. Data was analyzed using one-way ANOVA with post-hoc Dunnett's test.
# [2] = target: T1, rat metabotropic glutamate receptor 5 (mGluR5) (Rattus norvegicus, UniProt P31424); assay: Calcium mobilization assay (FLIPR) for negative or positive allosteric activity, HEK 293 cells; type: cell-based; conditions: HEK293, negative allosteric modulation, inhibition of EC80 glutamate response; read-out: FLIPR maximum inhibition
# T1 construct: expressed in transfected cells; host or cells: HEK 293
# T1 sequence (P31424 21-1171 isoform P31424-2 limits assumed): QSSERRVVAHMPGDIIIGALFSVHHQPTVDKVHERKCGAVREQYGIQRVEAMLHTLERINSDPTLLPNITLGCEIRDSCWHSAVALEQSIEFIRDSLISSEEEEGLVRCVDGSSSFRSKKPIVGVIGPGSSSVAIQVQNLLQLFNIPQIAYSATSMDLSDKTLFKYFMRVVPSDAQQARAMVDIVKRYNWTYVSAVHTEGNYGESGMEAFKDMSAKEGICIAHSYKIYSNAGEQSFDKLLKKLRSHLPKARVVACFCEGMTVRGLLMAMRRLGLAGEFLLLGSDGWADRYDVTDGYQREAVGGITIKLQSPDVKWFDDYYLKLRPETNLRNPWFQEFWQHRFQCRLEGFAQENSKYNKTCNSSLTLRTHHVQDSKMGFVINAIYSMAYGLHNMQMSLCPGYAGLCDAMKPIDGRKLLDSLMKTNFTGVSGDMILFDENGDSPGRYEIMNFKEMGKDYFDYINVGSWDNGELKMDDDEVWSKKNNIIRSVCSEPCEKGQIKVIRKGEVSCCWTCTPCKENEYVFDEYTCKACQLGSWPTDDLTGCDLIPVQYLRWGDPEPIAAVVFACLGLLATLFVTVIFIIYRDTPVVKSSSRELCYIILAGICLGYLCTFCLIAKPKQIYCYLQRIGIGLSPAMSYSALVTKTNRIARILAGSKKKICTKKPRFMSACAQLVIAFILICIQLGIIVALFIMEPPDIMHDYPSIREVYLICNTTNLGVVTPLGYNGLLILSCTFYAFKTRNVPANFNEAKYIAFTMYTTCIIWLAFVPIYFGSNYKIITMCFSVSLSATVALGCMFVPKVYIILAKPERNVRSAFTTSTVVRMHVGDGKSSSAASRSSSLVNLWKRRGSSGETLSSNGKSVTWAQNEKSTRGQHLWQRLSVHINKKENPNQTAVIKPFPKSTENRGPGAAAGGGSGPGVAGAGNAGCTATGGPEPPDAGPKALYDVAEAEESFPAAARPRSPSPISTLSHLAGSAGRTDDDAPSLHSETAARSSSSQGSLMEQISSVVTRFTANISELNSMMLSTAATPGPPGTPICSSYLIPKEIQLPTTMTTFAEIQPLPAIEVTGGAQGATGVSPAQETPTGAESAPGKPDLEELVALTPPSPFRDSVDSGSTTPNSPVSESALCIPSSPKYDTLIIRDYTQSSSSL
# In short: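 Peak Fluo-4 calcium signal over 3 min at room temperature, minus basal, fitted by Hill equation, in stable rat mGluR5 HEK 293 cells (HBSS/HEPES pH 7.4, BSA, probenecid). Inhibition scored against EC80 glutamate, potentiation against EC20 glutamate, glutamate given with compound.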
# mGluR5, sequence (P41594 21-1212): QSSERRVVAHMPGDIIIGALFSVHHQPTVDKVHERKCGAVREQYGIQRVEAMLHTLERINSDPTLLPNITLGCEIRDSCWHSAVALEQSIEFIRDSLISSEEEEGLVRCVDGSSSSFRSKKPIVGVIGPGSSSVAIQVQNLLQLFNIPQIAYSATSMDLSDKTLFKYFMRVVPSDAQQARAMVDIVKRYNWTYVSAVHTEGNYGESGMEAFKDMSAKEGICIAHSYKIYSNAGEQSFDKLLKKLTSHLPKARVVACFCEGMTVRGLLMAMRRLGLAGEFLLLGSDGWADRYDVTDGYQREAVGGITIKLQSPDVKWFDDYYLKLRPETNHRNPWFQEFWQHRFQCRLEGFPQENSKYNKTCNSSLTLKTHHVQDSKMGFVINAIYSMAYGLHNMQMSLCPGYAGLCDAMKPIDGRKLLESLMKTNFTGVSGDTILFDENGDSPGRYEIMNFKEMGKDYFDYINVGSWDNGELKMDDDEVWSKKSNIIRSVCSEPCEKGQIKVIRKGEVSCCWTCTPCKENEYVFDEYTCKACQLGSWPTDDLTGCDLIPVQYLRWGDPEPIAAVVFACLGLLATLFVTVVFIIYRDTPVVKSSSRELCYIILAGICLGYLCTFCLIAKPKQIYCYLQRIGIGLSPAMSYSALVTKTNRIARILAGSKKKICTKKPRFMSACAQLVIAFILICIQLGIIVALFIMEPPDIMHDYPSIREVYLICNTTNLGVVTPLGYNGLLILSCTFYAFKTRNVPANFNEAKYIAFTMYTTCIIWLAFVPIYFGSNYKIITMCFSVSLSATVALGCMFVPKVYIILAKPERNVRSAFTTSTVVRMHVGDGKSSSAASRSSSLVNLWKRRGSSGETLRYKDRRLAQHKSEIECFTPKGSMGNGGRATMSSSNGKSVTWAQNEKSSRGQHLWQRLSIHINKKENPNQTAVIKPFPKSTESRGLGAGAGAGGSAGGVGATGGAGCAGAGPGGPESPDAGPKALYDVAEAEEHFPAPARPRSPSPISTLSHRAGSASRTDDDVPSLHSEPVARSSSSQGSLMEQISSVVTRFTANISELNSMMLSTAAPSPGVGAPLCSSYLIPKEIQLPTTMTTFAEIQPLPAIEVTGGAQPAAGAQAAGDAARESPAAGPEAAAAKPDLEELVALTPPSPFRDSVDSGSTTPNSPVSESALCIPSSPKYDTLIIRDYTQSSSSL
Ki (mGluR5) [nM],Emax [2] [%],Compound,Statistically significant Active dose(s) [1] [mg/kg],Geller-Seifter EDmin [1] [mg/kg],"mMB EDmin (adult, male CD1 mice) [mg/kg]","minimal effective dose (adult, male CD1 mice; SC injection, one-way ANOVA with Dunnett's test or t-test, read-out: Statistically significant Active Dose) [mg/kg]"
6 to 700,63 to 99,"Cc1cncc(C(=O)NC23CC4CC(CC(NC(=O)c5ccccn5)(C4)C2)C3)n1 [Example 58, 6-Methyl-pyrazine-2-carboxylic acid {3-[(pyridine-2-carbonyl)-amino]-adamantan-1-yl}-amide]",–,10,10,–
–,63 to 99,"Cc1cccc(C(=O)NC23CC4CC(CC(NC(=O)c5cnccn5)(C4)C2)C3)n1 [Example 41, Pyrazine-2-carboxylic acid {3-[(6-methyl-pyridine-2-carbonyl)-amino]-adamantan-1-yl}-amide]",30,–,–,–
6 to 700,63 to 99,"Cc1cnc(C(=O)NC23CC4CC(CC(NC(=O)c5cccc(F)c5)(C4)C2)C3)cn1 [Example 94, 5-Methyl-pyrazine-2-carboxylic acid [3-(3-fluoro-benzoylamino)-adamantan-1-yl]-amide]",20,–,–,–

# More lines, now with the values behind:
Compound,Ki (mGluR5) [nM],Emax [2] [%],Statistically significant Active dose(s) [1] [mg/kg],Geller-Seifter EDmin [1] [mg/kg],"mMB EDmin (adult, male CD1 mice) [mg/kg]","minimal effective dose (adult, male CD1 mice; SC injection, one-way ANOVA with Dunnett's test or t-test, read-out: Statistically significant Active Dose) [mg/kg]"
"Cc1cccc(C(=O)NC23CC4CC(C2)CC(NC(=O)c2cccc(C)n2)(C4)C3)n1 [Example 1, N,N′-(1,3-adamantylene)bis(6-methyl-pyridine-2-carboxamaide)]",6.7,90 to 99,50,10,3,–
"O=C(NC12CC3CC(C1)CC(NC(=O)c1ccccn1)(C3)C2)c1ccccn1 [Example 2, N,N′-(1,3-adamantylene)bis(2-pyridinecarboxamide)]",40,90 to 99,20,20,30,30
